Measured values reported in patent publication US9376382B2, “N-substituted isopropyldimethyl azulene sulfonamide derivatives, and preparation method and use thereof” (Sichuan Guokang Pharmaceutical Co., Ltd., priority 2011, dated 2016).

Tests used:
[1] = Stability studies (light, humidity, heat), overall comparison
Experimental: (§1) The test samples were open-stored in culture dishes at 60° C. for 10 days, and taken and detected on Day 5 and Day 10. • The characteristics, especially colour change were observed. • Melting points were measured by automatic melting point apparatus. • By self-reflection, TLC is used to observe whether the spot numbers were increased after 5 days and 10 days.
The test samples were open-stored in closed constant humidity desiccators under the condition of 25° C. and relative humidity of 90%+5% for 10 days, and taken and detected on Day 5 and Day 10. Meanwhile, each sample was accurately weighed before and after test.
(§2) The test samples were open-stored in “adjustable light boxes” under the conditions of illumination of 4500LX±500LX for 10 days, and taken and detected on Day 5 and Day 10 with regards to dry items. • The characteristics, especially colour change was observed. • Melting points were measured by an automatic melting point apparatus. • By self-reflection, TLC is used to observe whether the spot numbers were increased after 5 days and 10 days.

[2] = High humidity test (25° C., relative humidity 90% ± 5%), stability study; type: physicochemical; details: RH 90% ± 5%; for Appearance Day 0: Day 0, cell wraps; for Appearance Day 0 / Appearance Day 5 / Appearance Day 10: first line given; for Appearance Day 5: Day 5, cell wraps; for Appearance Day 10: Day 10, cell wraps;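 as to all read-outs here: samples kept uncovered in sealed humidity desiccators, appearance judged mainly by colour change, melting point on an automatic apparatus, TLC checked for extra spots versus start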
[3] = High-temperature test (60° C.), stability study; type: physicochemical; details: open-stored; for Appearance Day 5: Day 5, cell wraps; for Appearance Day 5 / Appearance Day 10: first line given; for Appearance Day 10: Day 10, cell wraps;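 as to all read-outs here: samples kept uncovered in dishes at 60 °C for up to 10 days and examined on Day 5 and Day 10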
Experimental: as §1

[4] = Intense light irradiation test (4500LX ± 500LX), stability study; type: physicochemical; details: for Appearance Day 0: Day 0, cell wraps; for Appearance Day 0 / Appearance Day 5 / Appearance Day 10: first line given; for Appearance Day 5: Day 5, cell wraps; for Appearance Day 10: Day 10, cell wraps
Experimental: as §2

[5] = tested on: ethanol-induced gastric ulcer; assay: Anhydrous ethanol-induced gastric ulcer in mice; type: in vivo, Kunming mice; design: key to Gastri ulcer score (X ± SD) / Ulcer score (X ± SD) / Gastric ulcer score (X ± SD): summed pathology score: congestion 1, hemorrhage/erosion 1, linear erosion 3; details: for Inhibition rate (%): inhibition rate of ulcer vs model group; for Gastric ulcer score (X ± SD) / Gastri ulcer score (X ± SD) / Ulcer score (X ± SD): mice, intragastric once a day for five days; for anti-gastric ulcer effect in words: ethanol-induced gastric ulcer in mice, compared to the model group; for Gastri ulcer score (X ± SD): dose equimolar to azulene sulfonate sodium 3.0 mg/kg (Omeprazole 13.4 mg/kg), model group 13.00 ± 1.77; for Ulcer score (X ± SD): equimolar doses, model group 20.33 ± 12.23
Experimental: Kunming mice, half male and half female, weighing 18-22 g, provided by the West China Animal Center
(1) Azulene sodium sulphonate was added with 0.5% CMC to prepare a suspension with concentration of 0.15 mg/ml.
(2) 20 mg of Omeprazole was added with 0.5% CMC to prepare a suspension with concentration of 0.67 mg/ml.
Kunming mice were randomly grouped according the body weight (one model control group or negative control group, one Omeprazole control group or positive control group, one Azulene sodium sulphonate control group, twelve test drug groups), eight mice for each group, half male and half female.
Administration: Model control group was administrated intragastrically with 0.5% CMC solution at a dose of 0.4 ml/20 g; Omeprazole control group was administrated intragastrically with Omeprazole at a dose of 0.4 ml/20 g, Azulene sodium sulphonate control group and each test drug groups were administrated intragastrically with their respective drug at a dose of 0.4 ml/20 g. The mice in each group were administrated once a day for successive five days. 0.5 hour after final administration, the mice in each group were administrated intragastrically with 0.5 ml of anhydrous ethanol, one hour later the mice were executed and dissected, and their stomaches were taken, washed and scored according to the pathological degree. For local congestion and rubefaction, score was 1; for petechial hemorrhage or erosion, score was respectively 1, for each linear erosion, score was 3. Statistical analysis was performed. Ulcer scores were calculated, significant differences between the groups were compared and the inhibition rates of ulcer were calculated [Inhibition rate of ulcer=(ulcer score of model group−ulcer score of drug administration group)/ulcer score of model group].

[6] = Table 6, model group 17.86 ± 8.43
[7] = Table 7, model group 19.71 ± 7.18

## Cc1cc(S(=O)(=O)NC(C)C)c2c(C)ccc(C(C)C)cc1-2 [4c, N,5-diisopropyl-3,8-dimethyl-1-azulene sulfonamide]
[1]; summary of high-temperature, high humidity and intense light tests
  light, humidity and heat stability in words: better light, humidity and heat stability than azulene sulfonate sodium
[2]
  Melting point Day 0: 127.5-130.0 °C
  Spot numbers on TLC Day 0: 1
  hygroscopic rate (%) Day 0: 0.95%
  Appearance Day 0: purple
  Melting point Day 5: 128.0-130.5 °C
  Spot numbers on TLC Day 5: 1
  hygroscopic rate (%) Day 5: 1.32%
  Appearance Day 5: purple
  Melting point Day 10: 128.0-130.5 °C
  Spot numbers on TLC Day 10: 1
  Appearance Day 10: purple
[3]
  Melting point Day 0: 127.5-130.0 °C
  Spot numbers on TLC Day 0: 1
  Melting point Day 5: 127.5-129.5 °C
  Spot numbers on TLC Day 5: 1
  Appearance Day 5: purple
  Melting point Day 10: 127.5-129.5 °C
  Spot numbers on TLC Day 10: 1
  Appearance Day 10: purple
[4]
  Melting point Day 0: 127.5-130.0 °C
  Spot numbers on TLC Day 0: 1
  Appearance Day 0: purple
  Melting point Day 5: 127.0-129.5 °C
  Spot numbers on TLC Day 5: 1
  Appearance Day 5: purple
  Melting point Day 10: 125.0-126.5 °C
  Spot numbers on TLC Day 10: 2
  Appearance Day 10: purple
other
  melting point: 128 to 130 °C

## COC(=O)C(Cc1c[nH]c2ccccc12)NS(=O)(=O)C1=C2C(C)=C=C=C(C(C)C)C=C2C(C)=C1 (stereo not shown) [5d, N-2-(indol-3-methyl)-2-methoxyformyl methylene-3′,8′-dimethyl-5′-isopropyl azulene-1′-sulfonamide]
[5]; Table 6
  Inhibition rate (%): 51.23%
[5]; [6]
  Gastric ulcer score (X ± SD): 8.71 ± 4.93
[5]
  anti-gastric ulcer effect in words: stronger and more significant anti-gastric ulcer capability
other
  melting point: 178 to 180 °C

## COC(=O)CCNS(=O)(=O)C1=C2C(C)=C=C=C(C(C)C)C=C2C(C)=C1 [5h, N-3-methoxyformylethyl-3′,8′-dimethyl-5′-isopropyl azulene-1′-sulfonamide]
[5]; Table 6
  Inhibition rate (%): 50.78%
[5]; [6]
  Gastric ulcer score (X ± SD): 8.79 ± 4.38
[5]
  anti-gastric ulcer effect in words: stronger and more significant anti-gastric ulcer capability
other
  melting point: 94 to 96 °C

## CC1=C=C=C(C(C)C)C=C2C(C)=CC(S(=O)(=O)NC(CC(C)C)C(=O)O)=C12 (stereo not shown) [6b, N-2-(2-methylpropyl)-2-carboxymethylene-3′,8′-dimethyl-5′-isopropyl azulene-1′-sulfonamide]
[5]; Table 7
  Inhibition rate (%): 50.94%
[5]; [7]
  Gastric ulcer score (X ± SD): 9.67 ± 4.25
[5]
  anti-gastric ulcer effect in words: stronger and more significant anti-gastric ulcer capability
other
  melting point: 44 to 46 °C

## Cc1cc(S(=O)(=O)NC(Cc2c[nH]c3ccccc23)C(=O)O)c2c(C)ccc(C(C)C)cc1-2 (stereo not shown) [6c, N-2-(indol-3-methyl)-2-carboxymethylene-3′,8′-dimethyl-5′-isopropyl azulene-1′-sulfonamide]
[5]; Table 7
  Inhibition rate (%): 55.05%
[5]; [7]
  Gastric ulcer score (X ± SD): 8.86 ± 4.81
[5]
  anti-gastric ulcer effect in words: stronger and more significant anti-gastric ulcer capability

## CC1=C=C=C(C(C)C)C=C2C(C)=CC(S(=O)(=O)NCC(=O)N/N=C/c3cccs3)=C12 [8a]
[5]; Table 7
  Inhibition rate (%): 48.96%
[5]; [7]
  Gastric ulcer score (X ± SD): 10.06 ± 5.60
[5]
  anti-gastric ulcer effect in words: stronger and more significant anti-gastric ulcer capability
other
  melting point: 69 to 70 °C

## Cc1cc(S(=O)(=O)[O-])c2c(C)ccc(C(C)C)cc1-2.[Na+] [Azulene sulfonate sodium, 3,8-dimethyl-5-isopropyl azulene-1-sodium sulphonate, reference compound]
[1]; background statement, found by experiments
  light stability and heat stability in words: poor light stability and heat stability
[2]
  Melting point Day 0: 104.0-106.0 °C
  Spot numbers on TLC Day 0: 1
  hygroscopic rate (%) Day 0: 2.16%
  Appearance Day 0: dark
  Melting point Day 5: 100.5-105.5 °C
  Spot numbers on TLC Day 5: 3
  hygroscopic rate (%) Day 5: 3.69%
  Appearance Day 5: blue
  Melting point Day 10: 98.5-102.0 °C
  Spot numbers on TLC Day 10: 3
  Appearance Day 10: light
[5]; Table 4
  Inhibition rate (%): 45.08%
  Gastri ulcer score (X ± SD): 7.14 ± 4.73
[5]; Table 5
  Inhibition rate (%): 32.56%
  Ulcer score (X ± SD): 13.71 ± 10.75
[5]; Table 6
  Inhibition rate (%): 52.80%
[5]; [6]
  Gastric ulcer score (X ± SD): 8.43 ± 5.74
[5]; Table 7
  Inhibition rate (%): 52.16%
[5]; [7]
  Gastric ulcer score (X ± SD): 9.43 ± 5.74
[3]
  Melting point Day 0: 104.0-106.0 °C
  Spot numbers on TLC Day 0: 1
  Melting point Day 5: 102.5-104.0 °C
  Spot numbers on TLC Day 5: 2
  Appearance Day 5: blue flake
  Melting point Day 10: 98.5-100.0 °C
  Spot numbers on TLC Day 10: 4
  Appearance Day 10: light blue
[4]
  Melting point Day 0: 104.0-106.0 °C
  Spot numbers on TLC Day 0: 1
  Appearance Day 0: dark blue
  Melting point Day 5: 102.5-105.5 °C
  Spot numbers on TLC Day 5: 3
  Appearance Day 5: blue
  Melting point Day 10: 98.54-103.5 °C
  Spot numbers on TLC Day 10: >4
  Appearance Day 10: light

## COc1ccc2[nH]c([S+]([O-])Cc3ncc(C)c(OC)c3C)nc2c1 (stereo not shown) [Omeprazole, reference compound]
[5]; Table 4
  Inhibition rate (%): 47.23%
  Gastri ulcer score (X ± SD): 6.86 ± 3.77
[5]; Table 5
  Inhibition rate (%): 36.74%
  Ulcer score (X ± SD): 12.86 ± 11.89
[5]; Table 6
  Inhibition rate (%): 59.41%
[5]; [6]
  Gastric ulcer score (X ± SD): 7.25 ± 7.15
[5]; Table 7
  Inhibition rate (%): 58.25%
[5]; [7]
  Gastric ulcer score (X ± SD): 8.23 ± 3.18
